The values that follow are results of earlier work, collected in PMC5289470, “The biodistribution of 5-[^18F]fluoropyrazinamide in Mycobacterium tuberculosis-infected mice determined by positron emission tomography” (PLoS ONE, 2017).

Each structure is given as a SMILES string.

The data set concerns PZA-resistant M. tuberculosis isolates. The following applies: ref [14], [30]; cited from earlier work.

Take `NC(=O)c1cnc(Cl)cn1` [5-Cl-PZA, 5-Chloropyrazinamide]: the “in vitro activity against PZA-resistant M. tuberculosis isolates” value is “has in vitro activity”.
